SMILES strings stand for the structures. Active and inactive are the calls of the source. Bounds are passed on as bounds.

Test [1] deals with T1, Corticotropin-releasing factor receptor 2/Corticotropin-releasing factor-binding protein (Homo sapiens, UniProt P24387+Q13324).
T1 sequence (Q13324 whole entry): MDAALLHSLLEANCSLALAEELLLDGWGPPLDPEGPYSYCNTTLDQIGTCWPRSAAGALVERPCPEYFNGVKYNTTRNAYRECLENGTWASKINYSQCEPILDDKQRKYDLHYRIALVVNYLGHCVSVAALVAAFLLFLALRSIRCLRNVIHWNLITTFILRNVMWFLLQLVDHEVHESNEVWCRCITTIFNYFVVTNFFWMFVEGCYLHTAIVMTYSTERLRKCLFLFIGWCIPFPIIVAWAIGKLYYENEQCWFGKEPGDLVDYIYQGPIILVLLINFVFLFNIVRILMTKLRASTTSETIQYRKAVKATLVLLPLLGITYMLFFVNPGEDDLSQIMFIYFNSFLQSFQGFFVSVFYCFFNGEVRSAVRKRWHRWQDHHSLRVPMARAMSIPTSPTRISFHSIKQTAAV
T1 sequence (P24387 whole entry): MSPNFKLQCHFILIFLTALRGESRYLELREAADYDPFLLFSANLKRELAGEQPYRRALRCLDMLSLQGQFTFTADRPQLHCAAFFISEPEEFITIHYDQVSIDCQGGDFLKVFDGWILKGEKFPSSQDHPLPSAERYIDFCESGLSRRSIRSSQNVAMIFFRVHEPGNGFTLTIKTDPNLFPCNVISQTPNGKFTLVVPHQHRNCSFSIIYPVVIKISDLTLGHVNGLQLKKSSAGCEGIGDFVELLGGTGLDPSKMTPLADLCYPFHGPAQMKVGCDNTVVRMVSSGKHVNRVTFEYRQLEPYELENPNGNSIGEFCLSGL
In words: activators of CRF receptor 2 with binding protein – uHTS hits, confirmation (AID 602473). The conditions noted are these: read-out: EC50_Mean. It is filed as functional.

The subject of a further test is H9c2. In words: cells. It is filed as functional, cell-based. The note with it: Rattus norvegicus, H9c2, Myocardium.
The target of a further test is T2, Protein skinhead-1 (Caenorhabditis elegans, UniProt P34707).
T2 sequence (P34707 whole entry): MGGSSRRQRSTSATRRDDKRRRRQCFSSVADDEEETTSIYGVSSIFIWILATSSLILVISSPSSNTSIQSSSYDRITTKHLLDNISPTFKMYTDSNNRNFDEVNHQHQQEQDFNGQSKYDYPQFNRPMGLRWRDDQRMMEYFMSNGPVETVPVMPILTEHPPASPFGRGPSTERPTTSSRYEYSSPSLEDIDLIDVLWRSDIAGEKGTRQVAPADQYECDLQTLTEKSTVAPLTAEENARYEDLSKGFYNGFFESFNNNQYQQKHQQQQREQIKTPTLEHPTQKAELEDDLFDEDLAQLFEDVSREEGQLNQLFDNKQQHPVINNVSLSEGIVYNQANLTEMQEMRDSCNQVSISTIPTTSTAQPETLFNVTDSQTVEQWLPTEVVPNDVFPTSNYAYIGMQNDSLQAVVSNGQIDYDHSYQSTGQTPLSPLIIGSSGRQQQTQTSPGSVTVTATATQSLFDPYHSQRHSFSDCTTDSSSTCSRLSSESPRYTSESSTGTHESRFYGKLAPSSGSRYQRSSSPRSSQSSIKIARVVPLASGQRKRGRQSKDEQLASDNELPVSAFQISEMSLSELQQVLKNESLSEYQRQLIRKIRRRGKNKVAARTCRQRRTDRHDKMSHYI
It is filed as functional.

Test [2] deals with T3, Polyadenylate-binding protein 1 (Homo sapiens, UniProt P11940). In words: PABP1 MLLE–PAM2 interaction inhibitors, dose response, miRNA deadenylation inhibitor project, biochemical, fluorescence polarization, Cy5-PAM2 peptide, secondary (AID 602260). The class given is functional. The conditions noted are these: read-out: IC50_Mean. Background: Fluorescence polarisation rises when a labelled molecule tumbles more slowly, as on binding a larger partner.

The target in test [3] is T4, Heat shock factor protein 1 (Mus musculus, UniProt P38532).
T4 sequence (P38532 whole entry): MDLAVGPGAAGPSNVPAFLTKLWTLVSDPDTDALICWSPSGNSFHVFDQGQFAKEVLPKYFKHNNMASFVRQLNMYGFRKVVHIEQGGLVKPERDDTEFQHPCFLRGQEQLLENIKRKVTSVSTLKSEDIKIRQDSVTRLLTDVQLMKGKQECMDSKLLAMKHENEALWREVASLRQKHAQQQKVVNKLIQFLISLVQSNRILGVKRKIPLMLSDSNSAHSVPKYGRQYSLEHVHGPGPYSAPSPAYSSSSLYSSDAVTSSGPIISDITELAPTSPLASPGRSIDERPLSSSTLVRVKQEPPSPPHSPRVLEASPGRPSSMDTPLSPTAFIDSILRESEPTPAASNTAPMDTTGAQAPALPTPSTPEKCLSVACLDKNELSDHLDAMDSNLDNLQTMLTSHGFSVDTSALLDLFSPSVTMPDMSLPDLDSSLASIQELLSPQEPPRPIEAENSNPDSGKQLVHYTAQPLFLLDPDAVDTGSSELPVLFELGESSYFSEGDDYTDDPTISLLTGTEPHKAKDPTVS
The experiment in a line: inhibition of MG132-induced HSE-luciferase signal, confirmation, cell-based, NIH3T3, luminescence, dose retest (AID 2382).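 Note: NIH3T3 fibroblasts with HSF1-driven luciferase reporter stressed by proteasome inhibitor MG132; luminescence from HSF1-driven luciferase expression after 8 hours of MG132 stress.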 The class given is functional.

Test [4] has as its target T3, Polyadenylate-binding protein 1. In words: PABP1 MLLE–PAM2 binding inhibitor potency, dose response, biochemical, fluorescence polarization, FITC-PAM2 peptide (AID 602259). The class given is functional. The note with it: read-out: IC50_Mean.
Test [5] is described as follows: NIH-3T3 fibroblast cytotoxicity, dose response, cytotoxicity control, cell-based, fluorescence, Alamar Blue, secondary assay (AID 2327).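 Note: NIH-3T3 mouse fibroblasts cultured with fluconazole at 8 µg/mL.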 It is filed as functional. (In general: Resazurin is reduced to fluorescent resorufin, in cell work by metabolically active cells.)
In test [6] the target is T5, Zinc finger protein mex-5 (Caenorhabditis elegans, UniProt Q9XUB2).
T5 sequence (Q9XUB2 whole entry): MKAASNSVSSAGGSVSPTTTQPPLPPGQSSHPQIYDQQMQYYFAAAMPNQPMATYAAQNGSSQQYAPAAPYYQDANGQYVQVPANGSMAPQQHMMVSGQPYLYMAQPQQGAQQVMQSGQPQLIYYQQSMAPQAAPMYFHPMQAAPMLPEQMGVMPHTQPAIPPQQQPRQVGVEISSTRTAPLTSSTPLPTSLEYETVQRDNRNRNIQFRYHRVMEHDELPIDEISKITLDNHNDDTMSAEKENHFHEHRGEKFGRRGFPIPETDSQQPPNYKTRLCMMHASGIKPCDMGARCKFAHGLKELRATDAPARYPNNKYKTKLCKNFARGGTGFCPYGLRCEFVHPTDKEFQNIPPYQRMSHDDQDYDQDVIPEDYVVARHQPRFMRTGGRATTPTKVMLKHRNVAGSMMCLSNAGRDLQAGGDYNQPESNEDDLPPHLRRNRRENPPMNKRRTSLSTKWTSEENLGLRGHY
The experiment in a line: MEX-5/TCR-2 RNA interaction inhibitors, dose response, biochemical, C. elegans, fluorescence polarization (AID 1960).

Test [7] can be described thus: C. albicans growth with fluconazole, confirmation, fluorescence, retest (AID 2467). The class given is functional, cell-based.
Test [8] addresses T6, RNA-binding protein pos-1 (Caenorhabditis elegans, UniProt G5EF15).
T6 sequence (G5EF15 whole entry): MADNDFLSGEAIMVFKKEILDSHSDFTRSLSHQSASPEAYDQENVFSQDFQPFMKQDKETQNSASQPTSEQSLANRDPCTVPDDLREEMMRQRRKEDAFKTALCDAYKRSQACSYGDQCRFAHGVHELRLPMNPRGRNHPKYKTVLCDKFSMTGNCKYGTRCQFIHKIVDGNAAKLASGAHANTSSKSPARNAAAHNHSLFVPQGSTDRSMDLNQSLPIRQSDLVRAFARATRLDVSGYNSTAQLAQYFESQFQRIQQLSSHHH
The experiment in a line: inhibitors of POS-1/mex-3 RNA binding, dose response, biochemical, fluorescence polarization (AID 1964).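 Note: purified POS-1 fused to maltose binding protein made in E. coli; potency of compounds blocking POS-1 binding to fluorescent RNA.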

The target of test [9] is T4, Heat shock factor protein 1. In words: HSF1 potentiators in luciferase reporter cells, confirmation, cell-based, NIH3T3, luminescence, dose retest (AID 435004).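 Note: stress induced by proteasome inhibitor MG132 added 30 min after compound; luciferase reporter driven by HSF1 response element in NIH3T3 cells; actives raise luminescence as potentiators of the MG132 stress response.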 The class given is functional.
The target of test [10] is T7, Rac GTPase-activating protein 1 (Homo sapiens, UniProt Q9H0H5).
T7 sequence (Q9H0H5 whole entry): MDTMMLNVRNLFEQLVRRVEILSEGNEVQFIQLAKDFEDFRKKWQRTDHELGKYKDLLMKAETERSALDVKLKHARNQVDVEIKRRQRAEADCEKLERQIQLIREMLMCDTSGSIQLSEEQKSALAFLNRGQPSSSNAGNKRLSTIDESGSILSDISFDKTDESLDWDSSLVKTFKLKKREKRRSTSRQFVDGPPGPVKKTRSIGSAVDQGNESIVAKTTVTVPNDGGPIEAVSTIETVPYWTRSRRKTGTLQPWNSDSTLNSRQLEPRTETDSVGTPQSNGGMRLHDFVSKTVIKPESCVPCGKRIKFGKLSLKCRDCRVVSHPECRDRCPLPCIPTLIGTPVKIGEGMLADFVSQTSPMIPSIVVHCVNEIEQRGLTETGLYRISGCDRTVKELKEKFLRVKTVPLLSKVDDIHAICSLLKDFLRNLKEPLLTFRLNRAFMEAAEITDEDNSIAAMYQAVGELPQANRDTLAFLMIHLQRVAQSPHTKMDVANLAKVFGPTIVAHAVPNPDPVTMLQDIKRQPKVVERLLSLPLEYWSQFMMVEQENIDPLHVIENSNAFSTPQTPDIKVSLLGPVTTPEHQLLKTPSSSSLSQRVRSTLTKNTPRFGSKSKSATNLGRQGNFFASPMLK
The experiment in a line: MgcRacGAP GTPase-activating activity inhibitors, confirmation, biochemical, ADP Hunter fluorescence, primary and confirmatory (AID 624330). The class given is functional.

T3 sequence (P11940 whole entry): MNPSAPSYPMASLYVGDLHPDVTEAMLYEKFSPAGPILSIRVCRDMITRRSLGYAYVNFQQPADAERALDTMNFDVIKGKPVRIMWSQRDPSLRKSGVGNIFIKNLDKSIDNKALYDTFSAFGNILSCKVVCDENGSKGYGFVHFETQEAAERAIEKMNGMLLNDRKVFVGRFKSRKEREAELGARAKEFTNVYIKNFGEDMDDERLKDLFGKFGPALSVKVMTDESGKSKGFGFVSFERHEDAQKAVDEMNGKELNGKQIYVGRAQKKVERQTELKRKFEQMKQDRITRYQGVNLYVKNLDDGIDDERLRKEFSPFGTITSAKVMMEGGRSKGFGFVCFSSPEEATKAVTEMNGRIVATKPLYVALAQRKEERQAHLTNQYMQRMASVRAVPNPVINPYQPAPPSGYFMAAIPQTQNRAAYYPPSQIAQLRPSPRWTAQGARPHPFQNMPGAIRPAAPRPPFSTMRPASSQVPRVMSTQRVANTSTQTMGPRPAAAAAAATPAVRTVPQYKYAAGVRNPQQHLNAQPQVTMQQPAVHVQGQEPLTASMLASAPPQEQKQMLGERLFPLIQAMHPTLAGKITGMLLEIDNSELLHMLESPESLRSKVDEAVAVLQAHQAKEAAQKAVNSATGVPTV

As to `O=C(NCc1ccco1)C1CC(c2ccccc2O)=NO1` (centres undefined), the EC50 in [1] is > 53 µM (inactive).

Take `Cc1sc2nc(NCCO)nc(O)c2c1C`: in the test on H9c2, the IC50 is > 79 µM (inactive). For `O=C1/C(=C/c2ccco2)CCc2ccccc21`, at Protein skinhead-1, the IC50 was 31.2 µM (active). For the compound `Cc1ccc(-c2nc3cnccn3c2Nc2c(C)cccc2C)o1`, the IC50 in test [2] and in test [4] was > 66 µM (inactive) in each case. The EC50 in [3] was > 195 µM (not active). `O=C(CSc1nc2ccccc2o1)NCc1nnc(O)c2ccccc12`: the IC50 in the test on H9c2 was 8.34 µM (active). On to `CCCNC(=O)c1ccc2c(O)c(O)c(-c3ccc(F)cc3)nc2c1`, for which the EC50 in [5] is > 150 µM (inactive); in test [6], 4.47 µM (inconclusive); in test [7], > 38 µM (not active); in test [8], 7.74 µM (inconclusive). Moreover, the IC50 in the test with H9c2 was 14.1 µM (active). In the case of `CCC(=O)N1c2ccc(S(=O)(=O)CCC(=O)NCc3cccs3)cc2CC1C` (centres undefined), the IC50 on Protein skinhead-1 was > 100 µM (inactive). As for `CCOC(=O)c1nc(Nc2ccc(C(=O)OC)cc2)c2ccccc2n1`, in the test on H9c2, the IC50 was > 79 µM (inactive). Take `Cc1onc(-c2ccccc2)c1C(=O)NC(=S)NNC(=O)c1ccncc1`: the IC50 in [2] and in test [4] was > 66 µM (inactive) in each case.

Consider `CCCc1nc2ccccc2c(C(=O)OCc2nnc(-c3cc(OC)c(OC)c(OC)c3)o2)c1CC`, for which the IC50 in the test with H9c2 was > 79 µM (inactive). Same read-out and setting: with `CCCC(=O)Nc1cc(C)c2c(=O)oc3ccccc3c2n1` the figure was > 79 µM (inactive).

`CCCCOc1ccc(-c2nnc(-c3ccco3)o2)cc1`: on Protein skinhead-1, the IC50 is > 100 µM (inactive). Also, the EC50 in test [9] is > 260 µM (inactive). Regarding `Cc1ccc(Cl)cc1N1C(=O)CC(Sc2ncccn2)C1=O` (centres undefined), the IC50 in test [2] and in [4] was > 66 µM (inactive) throughout. As to `CC(C)c1ccc(N2C(=O)CC(Sc3ncccn3)C2=O)cc1` (centres undefined), the IC50 in test [2] and in [4] was > 66 µM (inactive) each time. As to `NS(=O)(=O)c1ccc(NC(S)=Nc2ccc(S(=O)(=O)N3CCCC3)cc2)cc1`, the IC50 in [2] and in test [4] was > 66 µM (inactive) throughout. Regarding `CCCCN(C(=S)NC(=O)c1ccccc1)c1c(N)n(Cc2ccccc2)c(=O)[nH]c1=O`, the IC50 in [2] and in test [4] was > 66 µM (inactive) each time.

As for `O=C(NC(=S)Nc1ccc(S(=O)(=O)Nc2nccs2)cc1)c1ccccc1`, the IC50 in test [2] and in test [4] was > 66 µM (inactive) in each case. Regarding `CC(Oc1ccc(Br)cc1)C(=O)N1CCc2ccccc21` (centres undefined), in test [1], the EC50 was 8.32 µM (active). Regarding `O=C(O)c1ccc(Cl)c(NC(=S)NC(=O)c2ccccc2[N+](=O)[O-])c1`, the IC50 in [2] and in [4] was > 66 µM (inactive) each time. Take `CN1CN(c2ccccc2)C2(CCN(CCCSc3ccccc3NC(=O)/C=C/c3ccccc3)CC2)C1=O`: in [1], the EC50 was 6.22 µM (active). Regarding `NC(=O)c1cccc(-c2coc3c(C(=O)NCCc4ccccc4)cccc23)c1`, the IC50 in the test on H9c2 is > 79 µM (inactive). For `COc1ccc(N2C(=O)CC(SCCc3nc4ccccc4[nH]3)C2=O)cc1` (centres undefined), the IC50 in test [2] and in test [4] was > 66 µM (inactive) in each case. `O=C(N/N=C/c1ccccn1)c1cc(-c2cccc3ccccc23)[nH]n1`: in the test with H9c2, the IC50 was > 79 µM (inactive). `Cc1cc(O)cc(O)c1/C=N/NC(=O)c1ccc2c(c1)OCCO2`: the IC50 is > 66 µM (inactive) in test [2] and 30.8 µM (inactive) in test [4]. In the case of `Oc1ccc(Br)cc1/C=N/c1ccc2[nH]ncc2c1`, the IC50 in [10] was 32.1 µM (active); in the test with H9c2, 12.6 µM (active). As for `CC1(C)Oc2ccc3ccc(=O)oc3c2C(/C=N/c2ccccn2)=C1O`, in the test with H9c2, the IC50 was > 79 µM (inactive). Still for that read-out and setting: with `O=C(N/N=C/c1ccccn1)c1ccc(NC(=O)c2cccc([N+](=O)[O-])c2)cc1` the figure was > 79 µM (inactive).
